Measurements: paper PMC12609950, “Evaluation of ^161Tb-Labeled Diphosphonates as Potential Bone-Targeting Agents” (International Journal of Molecular Sciences, 2025)
Blank lines part the entries; values can stand above or below the molecule they belong to.

Legend:
[1] = Cyclic voltammetry of Tb, HEDP and ZOL; conditions: glassy carbon electrode, Ag/AgCl reference, carbonate buffer pH 9
[2] = Radioelectrophoresis (net charge of complexes); type: physicochemical; conditions: 0.05 M phosphate buffer pH 7.4, 250 V, 1 h
Procedure: Radioelectrophoresis was employed to determine the net charge of the ^161Tb-labeled diphosphonate complexes and to confirm successful radiolabeling. For each sample, 5 μL of the radiolabeled complex or a control solution of ^161TbCl3 was applied to the center of Whatman 3MM chromatography paper strips (2 × 25 cm), which had been pre-soaked in 0.05 M phosphate buffer (pH 7.4). The strips were placed in an electrophoresis chamber filled with the same phosphate buffer, and electrophoresis was carried out at 250 V for 1 h using a Gelman Instrument electrophoresis system (Gelman Instrument Co., Ann Arbor, MI, USA). After radioelectrophoresis, each strip was dried and scanned using a TLC scanner. This method allowed the determination of the migration pattern of the radiolabeled species compared to free ^161Tb^3+, providing information about the charge and integrity of the formed complexes.

[3] = Biodistribution in healthy Wistar rats; type: in vivo; conditions: i.v.
Procedure: All animal experiments were conducted using healthy Wistar rats weighing 100–120 g. The rats were obtained from the Military Medical Academy (Belgrade, Serbia). All procedures involving animals were approved by the Ethical Committee of the Vinča Institute of Nuclear Sciences (permission No. 002225501 2025, issued on 20 May 2025) and were performed by the Directive 2010/63/EU of the European Parliament and of the Council of 22 September 2010 [50] on the protection of animals used for scientific purposes, as well as national animal welfare laws.
A total of 0.74 MBq of each ^161Tb-labeled compound (^161Tb-HEDP and ^161Tb-ZOL) and free ^161TbCl3 (at pH 7.5 and pH 4.5) was prepared in a final injection volume of 0.1 mL. Physiological saline was added to adjust the concentration to 10 µg of radiolabeled complex per 0.1 mL. Each formulation was administered intravenously via the lateral tail vein.
Animals (n = 3 per time point) were sacrificed at predetermined intervals: 2 h, 24 h, and 7 d post-injection, depending on the study group. Euthanasia was performed by intraperitoneal injection of a ketamine/xylazine overdose. Immediately after sacrifice, major organs and tissues (heart, lungs, liver, spleen, kidneys, stomach, intestines, muscle, and femur) were collected, weighed, and assessed for radioactivity using a gamma counter. The biodistribution of radiolabeled compounds was expressed as the percentage of the injected dose per gram of tissue (%ID/g), calculated by comparing the sample activity to that of the standard representing 100% of the injected dose. All data are presented as mean ± standard deviation (SD).

[4] = 2 h post-injection (initial), injected at pH 4.5
[5] = 2 h post-injection, injected at pH 4.5
[6] = 2 h post-injection, injected at pH 7.5
[7] = 7 d post-injection, injected at pH 7.5

Second Oxidation Pot. [1]: 1.45 V
Second Reduction Pot. [1]: −0.54 V
Compound: CC(O)(P(=O)(O)O)P(=O)(O)O [HEDP, 1-Hydroxyethylidene-1,1-diphosphonic acid]

Second Oxidation Pot. [1]: 1.39 V
Second Reduction Pot. [1]: −0.56 V
Compound: O.O.O.O.O.O.[Cl-].[Cl-].[Cl-].[Tb+3] [Tb, terbium(III) chloride hexahydrate]

Migration / net charge in radioelectrophoresis [2]: remained at the point of application
Liver [3, 4]: 1.88 ± 0.31 %ID/g
Spleen uptake [3, 4]: 0.37 ± 0.12 %ID/g
Blood [3, 5]: 0.02 ± 0.01 %ID/g
Bone uptake [3, 5]: 7.31 ± 0.32 %ID/g
Bone-to-kidney ratio [3, 5]: 3.97
Bone-to-liver ratio [3, 5]: 3.89
Muscle [3, 5]: 0.08 ± 0.05 %ID/g
Other tissues [3, 5]: Minimal uptake
Kidney ([3]; 2 h post-injection, injected at pH 4.5, listed as 161TbCl3 (pH 4.5)): 1.84 ± 0.07 %ID/g
Bone uptake [3, 6]: 6.53 ± 0.22 %ID/g
Kidney uptake [3, 6]: 1.03 ± 0.06 %ID/g
Liver uptake [3, 6]: 6.99 ± 0.21 %ID/g
Spleen uptake [3, 6]: 4.88 ± 0.15 %ID/g
Bone uptake ([3]; 24 h post-injection, injected at pH 7.5): 6.61 ± 0.14 %ID/g
Bone uptake ([3]; 7 d post-injection, injected at pH 4.5): 7.18 ± 0.12 %ID/g
Bone uptake [3, 7]: 6.68 ± 0.29 %ID/g
Kidney uptake [3, 7]: 0.60 ± 0.02 %ID/g
Liver uptake [3, 7]: 2.33 ± 0.02 %ID/g
Spleen uptake [3, 7]: 0.79 ± 0.02 %ID/g
Compound: [161Tb+3].[Cl-].[Cl-].[Cl-] [^161TbCl3]

First Oxidation Pot. [1]: 0.93 V
First Reduction Pot. [1]: 0.41 V
Second Oxidation Pot. [1]: 1.27 V
Second Reduction Pot. [1]: −0.54 V
Compound: O=P(O)(O)C(O)(Cn1ccnc1)P(=O)(O)O [ZOL, 1-hydroxy-2-(1H-imidazol-1-yl)ethane-1,1-diyldiphosphonic acid]
